Structures can show the parent of a compound that is named as a salt.
What was measured:
P. infestans = assay: whole plant or invertebrate; format: in vivo; settings: Phytophthora infestans, in Solanum tuberosum, read-out: P. infestans % inhibition
Phakopsora pachyrhizi = assay: Soybean rust on soybean (Glycine max) leaves, syringe infiltration of compound, visual scoring; format: in vivo; settings: 100 μM in 1% DMSO syringe infiltrated into adult G. max, visually scored at nine dpi, read-out: P. pachyrhizi Inhibitory effect
Procedure: Soybean plants were grown from pregerminated soybeans by putting them 1 cm deep into soil (Einheitserde type A240, Stender, Germany). Plants were grown in growth cabinets (16h light at 400 μM/m^2s and 22-24° C.-8h dark at 21-22° C.). 14 days after soil planting, plants were used for infection and experiments. Following inoculation with rust spores, plants were transferred back to growth cabinet prior to symptom screening.
Infiltration was always done through somata at the lower site of the leaf under light conditions to ensure stomata are open. Afterwards, the plants were kept in the growth cabinet for ˜1 h to let the leaves equilibrate again. The infiltrated plants were inoculated with Soybean rust spores using an airbrush and 0.01% Tween20 to ensure homogenous wetting. Plants were afterwards incubated for 24h in the dark at 24° C. and 100% humidity. At 9 dpi, infiltrated leaves were phenotypically scored.
• Fungicidal activity against Soybean rust was tested using a highly virulent stain of Phakopsora pachyrhizi and commercially available Soybeans.
The test compounds, […] 100 μM in 1% DMSO, were syringe infiltrated into adult G. max plants and subsequently sprayed with aqueous spore solutions and 0.01% Tween. In primary screenings, disease severity was visually screened and scored at nine days post infection (dpi) (Table 8).

SMILES	inhibition at 100 µM (P. infestans)	inhibition at 100 µM (Phakopsora pachyrhizi)
O=C(c1ccc(-c2cc(-c3ccc(F)cc3)[nH]n2)cc1)N1CCOCC1 [Compound 143, {4-[5-(4-Fluorophenyl)-1H-pyrazol-3-yl]phenyl}(morpholin-4-yl)methanone]	94%	5 to 30%
CCc1ccc(-c2cc(-c3cccc(NC(=O)[C@@H](N)CO)c3)[nH]n2)cc1 [Compound 129, (2S)-2-Amino-N-{3-[3-(4-ethylphenyl)-1H-pyrazol-5-yl]phenyl}-3-hydroxypropanamide hydrochloride]	97%	> 70%
